Test results as given in ChEMBL document CHEMBL1201862, “PubChem BioAssay data set” (2004).
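Following 48 hours of exposure in 96-well plates, responses at five concentrations were used to interpolate endpoints linearly. Here, GI50 denotes the concentration required for 50% inhibition of growth.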 Active and inactive are the calls of the source. No stated cut-off is given here; in the data, active = GI50 up to about 1.1 µM and inactive = higher.

Key:
Assay in all cases: DTP human tumour cell line panel, 48 h
[1] = tested on: SN12C
[2] = tested on: MDA-MB-435
[3] = tested on: SK-MEL-2
[4] = tested on: HCC 2998
[5] = tested on: TK-10
[6] = tested on: RXF 393
[7] = tested on: CCRF-CEM
[8] = tested on: NCI-H460
[9] = tested on: EKVX
[10] = tested on: SR
[11] = tested on: SK-MEL-5
[12] = tested on: UACC-257
[13] = tested on: SW-620
[14] = tested on: SNB-19
[15] = tested on: NCI/ADR-RES
[16] = tested on: SF-268
[17] = tested on: ACHN
[18] = tested on: SK-OV-3
[19] = tested on: HL-60
[20] = tested on: RPMI-8226

Compound | GI50 [1] | GI50 [2] | GI50 [3] | GI50 [4] | GI50 [5] | GI50 [6] | GI50 [7] | GI50 [8] | GI50 [9] | GI50 [10] | GI50 [11] | GI50 [12] | GI50 [13] | GI50 [14] | GI50 [15] | GI50 [16] | GI50 [17] | GI50 [18] | GI50 [19] | GI50 [20]
CN(C)CS/C(N)=N\C(O)C(Cl)(Cl)Cl (stereo not drawn) | > 100 µM (inactive) | > 100 µM (inactive) | > 100 µM (inactive) | > 100 µM (inactive) | > 100 µM (inactive) | > 100 µM (inactive) | 51.6 µM (inactive) | > 100 µM (inactive) | > 100 µM (inactive) | 82.2 µM (inactive) | > 100 µM (inactive) | > 100 µM (inactive) | > 100 µM (inactive) | > 100 µM (inactive) | > 100 µM (inactive) | > 100 µM (inactive) | > 100 µM (inactive) | – | – | –
CNc1nnc(CNc2ccc(-c3nnc(NC)n3N)cc2)n1N | > 100 µM (inactive) | > 100 µM (inactive) | > 100 µM (inactive) | < 0.01 µM (active) | > 100 µM (inactive) | > 100 µM (inactive) | > 100 µM (inactive) | > 100 µM (inactive) | > 100 µM (inactive) | – | > 100 µM (inactive) | > 100 µM (inactive) | > 100 µM (inactive) | > 100 µM (inactive) | > 100 µM (inactive) | > 100 µM (inactive) | > 100 µM (inactive) | > 100 µM (inactive) | 39.5 µM (inactive) | –
N#Cc1c(-c2ccccc2)c(C#N)c(=S)n(C2OC(CO)C(O)C(O)C2O)c1O (stereo not drawn) | > 100 µM (inactive) | > 100 µM (inactive) | > 100 µM (inactive) | – | > 100 µM (inactive) | > 100 µM (inactive) | > 100 µM (inactive) | > 100 µM (inactive) | – | > 100 µM (inactive) | > 100 µM (inactive) | > 100 µM (inactive) | > 100 µM (inactive) | > 100 µM (inactive) | > 100 µM (inactive) | > 100 µM (inactive) | > 100 µM (inactive) | > 100 µM (inactive) | > 100 µM (inactive) | > 100 µM (inactive)
O=c1cc(/C=C/c2ccc(O)c(O)c2)cc(/C=C/c2ccc(O)c(O)c2)o1 | 9.71 µM (inactive) | 12.9 µM (inactive) | 11.6 µM (inactive) | 6.68 µM (inactive) | 17.5 µM (inactive) | 6.71 µM (inactive) | 7.66 µM (inactive) | 14.3 µM (inactive) | 8.11 µM (inactive) | 1.24 µM (inactive) | 8.59 µM (inactive) | 12.5 µM (inactive) | 13.6 µM (inactive) | 8.28 µM (inactive) | 32.9 µM (inactive) | 5.86 µM (inactive) | 5.85 µM (inactive) | 11.5 µM (inactive) | – | 5.02 µM (inactive)
S=c1sc2ccccc2n1CN1CCN(Cc2ccccc2)CC1 | > 100 µM (inactive) | > 100 µM (inactive) | > 100 µM (inactive) | > 100 µM (inactive) | > 10 µM (inactive) | > 100 µM (inactive) | > 100 µM (inactive) | > 100 µM (inactive) | > 100 µM (inactive) | – | > 100 µM (inactive) | > 100 µM (inactive) | > 100 µM (inactive) | > 100 µM (inactive) | > 100 µM (inactive) | > 100 µM (inactive) | > 100 µM (inactive) | > 100 µM (inactive) | > 100 µM (inactive) | > 100 µM (inactive)
O/N=N/c1ccc2ccccc2n1 | > 100 µM (inactive) | > 100 µM (inactive) | > 100 µM (inactive) | – | > 100 µM (inactive) | – | > 100 µM (inactive) | > 100 µM (inactive) | 90.2 µM (inactive) | > 100 µM (inactive) | > 100 µM (inactive) | > 100 µM (inactive) | > 100 µM (inactive) | > 100 µM (inactive) | > 100 µM (inactive) | > 100 µM (inactive) | > 100 µM (inactive) | > 100 µM (inactive) | > 100 µM (inactive) | > 100 µM (inactive)
COc1ccc(Nc2nc(N)c(C(=O)c3ccc(Cl)cc3)s2)cc1 | 0.307 µM (active) | < 0.01 µM (active) | < 0.01 µM (active) | 0.0357 µM (active) | 3.61 µM (inactive) | < 0.01 µM (active) | < 0.01 µM (active) | < 0.01 µM (active) | 39.6 µM (inactive) | – | 0.0123 µM (active) | 42.9 µM (inactive) | < 0.01 µM (active) | < 0.01 µM (active) | < 0.01 µM (active) | 0.297 µM (active) | < 0.01 µM (active) | < 0.01 µM (active) | < 0.01 µM (active) | < 0.01 µM (active)
